Laboratory results reported in paper PMC11631053, “A receptor-based assay to study the sweet and bitter tastes of sweeteners and binary sweet blends: the SWEET project” (Chemical Senses, 2024).
Where “and” joins values, the source holds several entries; their conditions need not be identical. Equal values may be shown once.

How the values were obtained:
TAS2R38-AVI = TAS2R38-AVI (Homo sapiens, UniProt P59533, A262V); assay: Calcium mobilization assay, HEK293T-Gα16gust44 cells expressing TAS2R38-AVI
Experimental: (§1) Different concentration ranges were tested depending on the injected sweet compound. […] All of the concentration-receptor combinations were measured in triplicate, and each experiment was repeated at least 3 times. The Ca^2+ change was expressed as a fractional change in fluorescent light intensity: ΔF/F = (F − F0)/F0, where F was the fluorescent light intensity at each point, and F0 was the value of fluorescent light emitted prior to stimulus application. To calculate dose–response relationships, the changes in fluorescence upon stimulus application were averaged, mock-subtracted and baseline-corrected. The resulting obtained dose–response data were adjusted by using a 4-parameter logistic equation. The half-maximal effective concentration (EC50) was calculated by using SigmaPlot software (Systat Software, San Jose, CA, USA) as described in supplemental Supplementary Figs. S1, S2, and S3.

TAS2R10 = target: T1, TAS2R10 (Homo sapiens, UniProt Q9NYW0); assay: Calcium mobilization assay, HEK293T-Gα16gust44 cells expressing TAS2R10; conditions: for Response of TAS2R10: maximal concentration tested: sucralose 100 mM, neotame 30 µM, Ace-K 300 mM, RebA 4 mM, RebM 4 mM, mogroside V 5 mM, erythritol 200 mM, D-allulose 500 mM, thaumatin 100 mM
T1 sequence (Q9NYW0 1-307): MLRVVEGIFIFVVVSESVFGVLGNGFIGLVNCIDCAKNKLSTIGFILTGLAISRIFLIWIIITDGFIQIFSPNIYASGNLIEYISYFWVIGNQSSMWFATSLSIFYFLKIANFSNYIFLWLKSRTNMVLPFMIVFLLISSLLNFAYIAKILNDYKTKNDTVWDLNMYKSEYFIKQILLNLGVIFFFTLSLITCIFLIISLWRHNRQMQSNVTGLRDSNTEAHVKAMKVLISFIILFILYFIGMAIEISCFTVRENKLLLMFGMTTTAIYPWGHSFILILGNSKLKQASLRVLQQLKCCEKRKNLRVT
Experimental: Different concentration ranges were tested depending on the injected sweet compound. […] All of the concentration-receptor combinations were measured in triplicate, and each experiment was repeated at least 3 times. The Ca^2+ change was expressed as a fractional change in fluorescent light intensity: ΔF/F = (F − F0)/F0, where F was the fluorescent light intensity at each point, and F0 was the value of fluorescent light emitted prior to stimulus application. To calculate dose–response relationships, the changes in fluorescence upon stimulus application were averaged, mock-subtracted and baseline-corrected. The resulting obtained dose–response data were adjusted by using a 4-parameter logistic equation.

TAS2R38-PAV = TAS2R38-PAV (Homo sapiens, UniProt P59533, A49P/I296V); assay: Calcium mobilization assay, HEK293T-Gα16gust44 cells expressing TAS2R38-PAV
TAS2R38-PAV, sequence (P59533 whole entry A49P/I296V): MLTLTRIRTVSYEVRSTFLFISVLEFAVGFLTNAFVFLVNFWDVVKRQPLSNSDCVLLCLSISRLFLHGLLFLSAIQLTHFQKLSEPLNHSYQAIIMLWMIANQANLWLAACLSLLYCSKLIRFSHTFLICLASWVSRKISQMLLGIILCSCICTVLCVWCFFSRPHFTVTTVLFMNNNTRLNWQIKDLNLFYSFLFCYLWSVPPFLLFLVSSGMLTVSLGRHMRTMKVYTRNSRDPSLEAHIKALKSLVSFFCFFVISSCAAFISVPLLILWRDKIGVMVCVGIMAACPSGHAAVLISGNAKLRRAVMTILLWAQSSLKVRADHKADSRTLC
Experimental: as §1

TAS2R38-AVI, sequence (P59533 whole entry A262V): as the sequence (P59533 whole entry A49P/I296V) above, with P49A, A262V, V296I counted along it

Molecule	Response of TAS2R10 (TAS2R10)	other results
O=C(CO)[C@H](O)[C@H](O)[C@H](O)CO [D-allulose]	−	concentrations at which TAS2R38-AVI was activated (TAS2R38-AVI): > 300 mM; concentrations at which TAS2R38-PAV was activated (TAS2R38-PAV): > 300 mM
C=C1C[C@@]23CC[C@H]4[C@@](C)(CCC[C@@]4(C)C(=O)O[C@@H]4O[C@H](CO)[C@@H](O)[C@H](O[C@@H]5O[C@H](CO)[C@@H](O)[C@H](O)[C@H]5O)[C@H]4O[C@@H]4O[C@H](CO)[C@@H](O)[C@H](O)[C@H]4O)[C@@H]2CC[C@]1(O[C@@H]1O[C@H](CO)[C@@H](O)[C@H](O[C@@H]2O[C@H](CO)[C@@H](O)[C@H](O)[C@H]2O)[C@H]1O[C@@H]1O[C@H](CO)[C@@H](O)[C@H](O)[C@H]1O)C3 [RebM, Rebaudioside M]	−	
C[C@H](CC[C@@H](O[C@@H]1O[C@H](CO[C@@H]2O[C@H](CO)[C@@H](O)[C@H](O)[C@H]2O)[C@@H](O)[C@H](O)[C@H]1O[C@@H]1O[C@H](CO)[C@@H](O)[C@H](O)[C@H]1O)C(C)(C)O)[C@H]1CC[C@@]2(C)[C@@H]3CC=C4[C@@H](CC[C@H](O[C@@H]5O[C@H](CO[C@@H]6O[C@H](CO)[C@@H](O)[C@H](O)[C@H]6O)[C@@H](O)[C@H](O)[C@H]5O)C4(C)C)[C@]3(C)[C@H](O)C[C@]12C [Mogroside V, mogroside V]	−	EC50 (TAS2R38-PAV; read-out: TAS2R38-PAV EC50, text prints TAS2R38): 0.253 ± 0.139 mM

Further lines, with some results ahead:

Response of TAS2R10 (TAS2R10)	Molecule	other results
−	OC[C@@H](O)[C@@H](O)CO [Erythritol, erythritol]	
−	COC(=O)[C@H](Cc1ccccc1)NC(=O)[C@H](CC(=O)O)NCCC(C)(C)C [Neotame]	
−	thaumatin	
#^a	OC[C@H]1O[C@H](O[C@]2(CCl)O[C@H](CCl)[C@@H](O)[C@@H]2O)[C@H](O)[C@@H](O)[C@H]1Cl [Sucralose, sucralose]	EC50 (TAS2R10; TAS2R10 EC50): 17 mM and ≥ 3 mM
−	CC1=CC(=O)NS(=O)(=O)O1 [Ace-K, acesulfame-K]	
